Where a SMILES comes first, the peptide text is derived from it.
Test system: drug-resistant Mycobacterium tuberculosis
Conditions: drug-resistant Mycobacterium tuberculosis growth; peptide 10 micrograms per ml; seven days

NCCCC[C@H](NC(=O)[C@@H](N)CCCCN)C(=O)NCC(=O)N[C@@H](CCC(=O)O)C(=O)O [MPF, Lys-Lys-Gly-Glu-OH] (H-KKGE-OH)
% inhibition: 0.0%

— US20100197608A1, “USE OF MELANOTROPHIN-POTENTIATING FACTOR AS A THERAPEUTIC AGENT” (priority 2007, published 2010)
